Laboratory results: US7723037B2, “Methods and kits for diagnosing or monitoring autoimmune and chronic inflammatory disease” (The Regents of the University of Michigan, priority 2004, dated 2010)

Experiments:
CD70 [1] = assay: CD70 expression on CD4+ cells of PBMCs cultured with medications used to treat lupus, flow cytometry; format: cell-based, human; details: PBMCs with or without PHA, 24 hours, graded concentrations (1-100 μM)
CD70 [2] = details: PHA-stimulated T cells, 3 days, oligonucleotide arrays, mean±SEM, 2 independent experiments
CD70 promoter = assay: Bisulfite sequencing of the CD70 (TNFSF7) promoter in CD4+ T cells; format: cell-based, human; details: for methylation of the 10 CG pairs between −515 and −423 of the TNFSF7 promoter: CD4+ T cells stimulated with anti-CD3 and anti-CD28, vs stimulated untreated controls (FIG. 13, 14)
Experimental: (§1) In other studies, T cells were isolated by negative selection using magnetic beads and instructions provided by the manufacturer (Pan T cell Isolation Kit, Miltenyi), and the CD4+ or CD8+ subset was similarly isolated by magnetic cell sorting. Jurkat cells (E6-1) were cultured as previously described (See, e.g., Cornacchia et al., J Immunol 140:2197 (1998)). Purified human CD4+ T cells were first stimulated with plate bound anti-CD3 and soluble anti-CD28. Briefly, 24 well plates were coated with 300 μl of anti-CD3 (10 μg/ml in PBS—SouthernBiotech) 18 hours 4° C., washed, then 2×10^6 purified T cells were added to the wells in 2 ml RPMI 1640/10% FCS containing 2 μg/ml anti-CD28 (SouthernBiotech).
Bisulfite sequencing. The putative CD70 promoter was identified using the published CD70 cDNA sequence and Tfsitescan software. Deoxycytosine (dC) and deoxymethylcytosine (d^mC) bases in the gene promoter and 5′ flanking sequences were identified by bisulfite treatment of purified DNA followed by nested PCR amplification of 3 sequential fragments to span the entire region. The primers were designed to avoid CG pairs and to account for the conversion of dC to dU by the bisulfite. EcoRI sites were added to the forward primers, and XbaI to the reverse, to facilitate cloning. The amplified fragments were then cloned into PBS+, and 5 clones sequenced for each fragment. The primers used were: […]
The effect of lupus and DNA methylation inhibitors on a regulatory element in the CD70 promoter was examined. DNA was isolated from the CD4+ T cells of 7 healthy individuals or 6 lupus patients, bisulfite treated, the region from −466-−515, containing 6 CG pairs was amplified by PCR, and 5 fragments sequenced from each individual. The average methylation status of the 6 CG pairs for healthy versus lupus individuals is shown (FIG. 8, NI and Lupus, respectively). CD4+ T cells from 5 individuals were also stimulated with PHA, treated with the irreversible DNA methyltransferase inhibitor 5-azacytidine (5-azaC), and the methylation status of the 6 CG pairs similarly analyzed from the 25 fragments sequenced (FIG. 8, 5-azaC). […] Results are presented as the mean±SEM of the average methylation of the 6 CG pairs, measured from the 10-35 determinations/group.
The effects of the DNA methylation inhibitors on the methylation status of this region were then compared. […] Again, 5 cloned fragments were sequenced from each control, for a total of 35 determinations per CG pair. […] FIG. 14 compares the average methylation for the 10 CG pairs (−515 to −423) in the T cells treated with DNA methylation inhibitors relative to stimulated, untreated controls.

B cell IgG production = assay: T cell and B cell costimulation assay, IgG ELISA of supernatants; format: cell-based, human; details: autologous B cells; for IgG produced by B cells cultured with drug-treated cloned T cells vs untreated T cells: TT48E treated 3 days, without PWM, P<0.05 (FIG. 4); for IgG secreted by B cells cultured with drug-treated T cells vs untreated T cells: unfractionated PHA-stimulated T cells, PWM, 8 days, P<0.05 (FIG. 3)
Experimental: T cell and B cell costimulation assays. E-rosette-purified T cells were stimulated for 16 hours with PHA and then treated with the indicated chemicals for an additional 72 hours as described above. Where indicated, T cell subsets were isolated by negative selection using magnetic beads (Miltenyi). B cells (1-4×10^5) enriched by negative selection using magnetic beads (Miltenyi) and assessed to be 70-85% pure using PE-conjugated anti-human CD21 (PHARMINGEN), were added to washed, drug-treated autologous T cells, at T cell to B cell ratios of 4:1, 2:1, 1:1, 1:2, and 1:4. Where indicated, 0.625 μg/ml of PWM (ALDRICH) was added. The cells were cultured in RPMI 1640/10% FBS/penicillin/streptomycin for 8 days in 96-well roundbottomed plates (Costar) containing a 200 μl total volume (performed in duplicate). Cells were supplemented with 50 μl of medium on day 4. Where indicated, 1 μg/ml of anti-CD70 monoclonal antibody (HNE51) (DAKO) was added to the cultures. TT48E cells were similarly stimulated with PHA (1 μg/ml) for 18 hours, treated with the indicated drugs for 3 days, then similarly cultured with autologous B cells for 8 days. Where indicated, the TT48E cells were pretreated with 1 μg/ml of anti-CD70 for 30 minutes at 4° C., then washed and added to the B cells, according to protocols described by others (See, e.g., Kobata et al., Proc Natl Acad Sci USA 92, 11249 (1995)).
IgG enzyme-linked immunosorbent assays (ELISAs). IgG was measured in the supernatants of the T cell-B cell cultures (See, e.g., Richardson et al., Clin Immunol Immunopathol 55, 368 (1990)). Briefly, 96-well flatbottomed polystyrene plates (Costar) were coated with 1 μg/ml of goat anti-human IgG (Southern Biotech) and washed. Unreacted combining sites were sealed with 3% bovine serum albumin (BSA) in phosphate buffered saline (PBS) by incubation at 4° C. for 16 hours. Pooled supernatants from duplicate wells were diluted 1:5 in PBS/1% BSA, and 50 μl was added to the wells. Serial dilutions of purified human IgG (Sigma) were used for quantitation. Following incubation and washing, goat anti-human IgG conjugated with horseradish peroxidase (Southern Biotech) was added, and cells were incubated for 2 hours at room temperature. The wells were washed 3 times with PBS/0.1% Tween 20, and color was developed using Sigma Fast tablets. The plates were read at 405 nm using a SpectraMax spectrophotometer (Molecular Devices). All determinations were performed in quadruplicate.
Since CD70 participates in T cell-dependent B cell stimulation (See e.g., Kobata et al., Proc Natl Acad Sci USA 92, 11249 (1995)), the effects of DNA methylation inhibitors on CD70-dependent B cell help were examined. […] Eight days later, total IgG in the supernatants was measured by ELISA. […]

CD70 [3] = assay: Flow cytometric analysis of CD70 expression on drug-treated T cells; format: cell-based, human; details: for CD70 expression on CD4+ T cells: summary statement; for increase of CD70 MFI on CD4+ T cells: 1 μM 5-azaC (n=5), 25 μM PD98059 (n=3), 40 μM U0126 (n=4); for CD70 expression increase on cloned T cell line TT48E: 1 μM 5-azaC or 40 μM U0126 for 3 days, 6 serial experiments; for CD70 expression on PHA-stimulated T cells, treated vs untreated: unfractionated T cells, 3 days, 1 μM 5-azaC, procainamide dose response, 25 μM PD98059, 40 μM U0126 (FIG. 2)
CD70 mRNA = assay: Real time RT-PCR of CD70 transcripts relative to β-actin in T cells; format: cell-based, human; details: for CD70 mRNA (transcripts) in CD4+ T cells: anti-CD3 + anti-CD28, 3 days, 5 μm 5-azaC, 50 μm Pca, 20 μm Hyd, 40 μm UO126, 25 μm PD98059 (FIG. 9); for expression of CD70 mRNA relative to that of beta-actin: PHA-stimulated T cells, treated vs untreated, real time RT-PCR (FIG. 1B)
Experimental: Cells and cell culture. Peripheral blood mononuclear cells (PBMCs) were isolated by density-gradient centrifugation. T cells were then isolated by E-rosetting (See, e.g., Golbus et al., Clin Immunol Immunopathol 46, 129 (1988)). […] Where indicated, the cells were cultured in RPMI 1640/10% fetal calf serum (FCS) supplemented with interleukin-2 (IL-2) (See, e.g., Richardson et al., Clin Immunol Immunopathol 55, 368 (1990)), in round-bottomed 5-ml culture tubes (FALCON). Cells were stimulated with 1 μg/ml of PHA (REMEL) for 16 hours, then cultured in 24-well plates at a density of 1×10^6 for an additional 72 hours in the presence of 2-deoxy-5-azaC or 5-azaC (SIGMA ALDRICH), procainamide (SIGMA ALDRICH), hydralazine (SIGMA ALDRICH), or the MEK inhibitors U0126 (PROMEGA) or PD98059 (PROMEGA). In other studies, PHA-stimulated PBMCs were cultured in RPMI 1640/10% FCS and treated with indomethacin, chloroquine, hydrocortisone, and 6-mercaptopurine (6-MP) (all from SIGMA ALDRICH). TT48E, a cloned, CD4+, tetanus toxoid-reactive human T cell line, was cultured as previously described (Cornacchia et al., J Immunol 140, 2197 (1988); Richardson et al., Arthritis Rheum 35, 647 (1992)).
as §1

Row | Structure (SMILES) | CD70 expression on stimulated or unstimulated CD4+ cells (CD70 [1]) | methylation of the 10 CG pairs between −515 and −423 of the TNFSF7 promoter (CD70 promoter) | CD70 expression on CD4+ T cells (CD70 [3]) | increase of CD70 MFI on CD4+ T cells (CD70 [3]) [fold] | CD70 expression on PHA-stimulated T cells, treated vs untreated (CD70 [3]) | CD70 mRNA (transcripts) in CD4+ T cells (CD70 mRNA) | further results
1 | Sc1ncnc2nc[nH]c12 [6-MP, 6-mercaptopurine] | No increase in CD70 expression | – | – | – | – | – | –
2 | Nc1ncn([C@H]2C[C@H](O)[C@@H](CO)O2)c(=O)n1 [2-deoxy-5-azaC] | – | – | – | – | – | – | CD70 expression increase in treated cells relative to untreated controls (CD70 [2]): 2.6±0.6 fold
3 | N#CC(=C(/N)Sc1ccccc1N)/C(C#N)=C(\N)Sc1ccccc1N [U0126] | – | appears to demethylate | increased CD70 expression | 3.20±0.44 | increase in CD70 expression | increased steady state levels of CD70 mRNA | IgG produced by B cells cultured with drug-treated cloned T cells vs untreated T cells (B cell IgG production): greater amounts of IgG; IgG secreted by B cells cultured with drug-treated T cells vs untreated T cells (B cell IgG production): greater amounts of IgG; CD70 MFI increase in T cells treated with U0126 (FIG. 2I) (CD70 [3]; T cells treated with 40 μM U0126, P=0.085): 2.83±0.95 fold; CD70 expression increase on cloned T cell line TT48E (CD70 [3]): 1.87±0.37 fold; expression of CD70 mRNA relative to that of beta-actin (CD70 mRNA): increased the expression of CD70 mRNA
4 | CCN(CC)CCNC(=O)c1ccc(N)cc1 [procainamide] | – | appears to demethylate | increased CD70 expression | – | increase in the ratio of the mean fluorescence intensity (MFI) of CD70 expression | increased steady state levels of CD70 mRNA | methylation of the region from −466-−515 (6 CG pairs) of the CD70 promoter (CD70 promoter; PHA-stimulated CD4+ T cells (FIG. 8)): demethylate this region
5 | COc1cccc(-c2cc(=O)c3ccccc3o2)c1N [PD98059] | – | appears to demethylate | increased CD70 expression | 1.63±0.43 | increase in CD70 expression | increased steady state levels of CD70 mRNA | –
6 | COc1ccc2c(c1)c(CC(=O)O)c(C)n2C(=O)c1ccc(Cl)cc1 [indomethacin] | No increase in CD70 expression | – | – | – | – | – | –
7 | C[C@]12CCC(=O)C=C1CC[C@@H]1[C@@H]2[C@@H](O)C[C@@]2(C)[C@H]1CC[C@]2(O)C(=O)CO [hydrocortisone] | No increase in CD70 expression | – | – | – | – | – | –
8 | Nc1ncn([C@@H]2O[C@H](CO)[C@@H](O)[C@H]2O)c(=O)n1 [5-azaC, 5-azacytidine] | – | hypomethylated compared to controls | increased CD70 expression | 1.53±0.45 | small increase | increased steady state levels of CD70 mRNA | IgG produced by B cells cultured with drug-treated cloned T cells vs untreated T cells (B cell IgG production): greater amounts of IgG; IgG secreted by B cells cultured with drug-treated T cells vs untreated T cells (B cell IgG production): greater amounts of IgG; CD70 expression increase on cloned T cell line TT48E (CD70 [3]): 1.69±0.33 fold; concentration producing the greatest effect on CD70 expression (CD70 [3]; range of 5-azaC concentrations, PHA-stimulated T cells, n=5 experiments (FIG. 2B)): 1 µM; CD70 expression increase in treated cells relative to untreated controls (CD70 [2]): > 2 fold; expression of CD70 mRNA relative to that of beta-actin (CD70 mRNA): increased the expression of CD70 mRNA
9 | CCN(CC)CCCC(C)Nc1ccnc2cc(Cl)ccc12 (stereo not drawn) [chloroquine] | No increase in CD70 expression | – | – | – | – | – | –
